Test results published in patent US8822754B2, “Ecdysone receptor-based inducible gene expression system” (Intrexon Corporation, priority 2000, dated 2014).

Experiments:
GAL4RXR + VP16CfEcR = assay: Transactivation of reporter genes through switch 1.3 in 3T3 cells; conditions: GAL4MmRXRDEF/VP16CfEcRCDEF (switch 1.3), 1.0 μM ligand
From the text: (§1) In various cellular backgrounds, including mammalian cells, insect ecdysone receptor (EcR) heterodimerizes with retinoid X receptor (RXR) and, upon binding of ligand, transactivates genes under the control of ecdysone response elements. Applicants constructed several EcR-based gene expression cassettes based on the spruce budworm Choristoneura fumiferana EcR (“CfEcR”; full length polynucleotide and amino acid sequences are set forth in SEQ ID NO: 49 and SEQ ID NO: 50, respectively), C. fumiferana ultraspiracle (“CfUSP”; full length polynucleotide and amino acid sequences are set forth in SEQ ID NO: 51 and SEQ ID NO: 52, respectively), and mouse Mus musculus RXRα (MmRXRα; full length polynucleotide and amino acid sequences are set forth in SEQ ID NO: 53 and SEQ ID NO: 54, respectively). The prepared receptor constructs comprise a ligand binding domain of EcR and of RXR or of USP; a DNA binding domain of GAL4 or of EcR; and an activation domain of VP16. The reporter constructs include a reporter gene, luciferase or LacZ, operably linked to a synthetic promoter construct that comprises either GAL4 or EcR/USP binding sites (response elements). Various combinations of these receptor and reporter constructs were cotransfected into CHO, NIH3T3, CV1 and 293 cells. […] Reporter gene expression activities were assayed at 24 hr or 48 hr after ligand addition.
MmRXRDEF (SEQ ID NO: 22) was fused to a GAL4DNABD (SEQ ID NO: 41) and CfEcRCDEF (SEQ ID NO: 1) was fused to a VP16AD (SEQ ED NO: 45).
(§2) The same procedures described for CHO cells were followed for 3T3 cells as well with two modifications. The cells were plated when they reached 50% confluency. 125,000 or 50,000 or 25,000 cells were plated per well of 6- or 12- or 24-well plates respectively. The GAl4EcR/VP16RXR and reporter vector DNAs were transfected into NIH3T3 cells, the transfected cells were grown in medium containing PonA, MurA, N-(2-ethyl-3-methoxybenzoyl)-N′-(3,5-dimethylbenzoyl)-N′-t-butylhydrazine, or N-(3,4-(1,2-ethylenedioxy)-2-methylbenzoyl)-N′-(3,5-dimethylbenzoyl)-N′-tert-butylhydrazine for 48 hr. The ligand treatments were performed as described in the CHO cell section above.
(§3) Cells were harvested 24-48 hr after adding ligands. 125, 250, or 500 μl of passive lysis buffer (part of Dual-luciferase™ reporter assay system from Promega Corporation) were added to each well of 24- or 12- or […] respectively. The plates were placed on a rotary shaker for 15 min. Twenty μl of lysate was assayed. Luciferase activity was measured using Dual-luciferase™ reporter assay system from Promega Corporation following the manufacturer's instructions. β-Galactosidase was measured using Galacto-Star™ assay kit from TROPIX following the manufacturer's instructions. All luciferase and β-galactosidase activities were normalized using Renilla luciferase as a standard. Fold activities were calculated by dividing normalized relative light units (“RLU”) in ligand treated cells with normalized RLU in DMSO treated cells (untreated control).

CfEcR = assay: Comparison of switches in the mammalian cell lines tested (Tables 1-4); type: cell-based, Choristoneura fumiferana; conditions: see Tables 1-4
Protocol: Several commercially available lipofactors as well as electroporation methods were evaluated and the best conditions for transfection of each cell line were developed. CHO, NIH3T3, 293 and CV1 cells were grown to 60% confluency. DNAs corresponding, to the various switch constructs outlined in Examples 1.1 through 1.10 were transfected into CHO cells, NIH3T3 cells, 293 cells, or CV1 cells as follows.
Cells were harvested 24-48 hr after adding ligands. […] Twenty μl of lysate was assayed.

GAL4EcR + VP16RXR = assay: Transactivation of reporter genes through switch 1.1 in 3T3 cells; conditions: GAL4CfEcRDEF/VP16MmRXRDEF (switch 1.1), 1.0 μM ligand, 48 hr
From the text: as §1, §2, §3

CfEcR/RXR-based switch = assay: Luciferase reporter assay of truncated CfEcR and MmRXR receptor pairs in NIH3T3 cells (Example 2); type: cell-based, Choristoneura fumiferana; conditions: NIH3T3 cells, 0, 1, 5 or 25 uM ligand, 48 hr; FIGS. 11-14
Protocol: Briefly, polynucleotides encoding EcR or RXR receptors were truncated at the junctions of A/B, C, D, E and F domains and fused to either a GAL4 DNA binding domain encoding polynucleotide (SEQ ID NO: 41) for CfEcR, or a VP16 activation domain encoding polynucleotide (SEQ ID NO: 45) for MmRXR as described in Example 1. The resulting receptor truncation/fusion polypeptides were assayed in NIH3T3 cells. Plasmid pFRLUC (Stratagene) encoding a luciferase polypeptide was used as a reporter gene construct and pTKRL (Promega) encoding a Renilla luciferase polypeptide under the control of the constitutive TK promoter was used to normalize the transfections as described above. The analysis was performed in triplicates and mean luciferase counts were determined as described above.
Gene expression cassettes comprising polynucleotides encoding either full length or truncated CfEcR polypeptides fused to a GALA. […] The cells were harvested, lysed and luciferase reporter activity was measured in the cell lysates. […]

Cc1cc(C)cc(C(=O)N(NC(=O)c2ccc3c(c2C)OCCO3)C(C)(C)C)c1 [N-(3,4-(1,2-ethylenedioxy)-2-methylbenzoyl)-N′-(3,5-dimethylbenzoyl)-N′-tert-butylhydrazine]
Mean Fold Induction at 1.0 μM Concentration (GAL4RXR + VP16CfEcR): 54 fold | potency as activators of CfEcR as compared to DmEcR (CfEcR): more potent activators of CfEcR | Mean Fold Induction at 1.0 μM Concentration (GAL4EcR + VP16RXR): 601 fold

CC(C)CC[C@@H](O)[C@](C)(O)[C@H]1CC[C@@]2(O)C3=CC(=O)[C@]4(O)C[C@@H](O)[C@@H](O)C[C@]4(C)[C@H]3[C@H](O)C[C@]12C [Muristerone A, reference compound]
Mean Fold Induction at 1.0 μM Concentration (GAL4RXR + VP16CfEcR): 1.0 fold | Mean Fold Induction at 1.0 μM Concentration (GAL4EcR + VP16RXR): 1.0 fold

CC(C)CC[C@@H](O)[C@](C)(O)[C@H]1CC[C@@]2(O)C3=CC(=O)[C@@H]4C[C@@H](O)[C@@H](O)C[C@]4(C)[C@H]3CC[C@]12C [Ponasterone A, reference compound]
Mean Fold Induction at 1.0 μM Concentration (GAL4RXR + VP16CfEcR): 1.0 fold | Mean Fold Induction at 1.0 μM Concentration (GAL4EcR + VP16RXR): 1.0 fold | sensitivity of the EcR/RXR switch to the ligand (CfEcR/RXR-based switch): insensitive
